Measured values from EP0472304A2, “Pharmaceutical compositions containing therapeutically active organosilane derivatives and process for preparing same” (Richter Gedeon Vegyészeti Gyár R.T., priority 1990, dated 1992).
Marks after values point to notes of the source that are not given here.

How the values were obtained:
[1] = test system: Straub's tail; test: Straub's tail test (morphine-induced); format: in vivo, male OF-1 mice; details: Mus musculus, ip; mice, i.p., pretreatment 20 min before reading; 60 mg/kg i.p. morphine hydrochloride
Description: Method 2: Straub's tail test
The method of Novack [Drug Development Res. 2, 383 (1982)] was used with a slight modification. Groups consisting of 10 male OF-1 mice each weighing 19 to 21 g were intraperitoneally treated with 60 mg/kg of morphine hydrochloride. The formation of Straub's tail was judged 15 minutes after the morphine treatment. This was considered to be positive when the animal kept his tail permanently upwards at an angle being steeper than 45°. A pretreatment was carried out with various doses of the compound to be tested 20 minutes before the time of reading. The ED50 value, i.e. the dose inhibiting the positive response in 50% of the animals, was calculated by using the method of Litchfield and Wilcoxon.
(The above author found a good relation between the activity shown in the above test and the clinical effectivity of central muscle relaxants.)

[2] = test system: flexor reflex; test: Investigation of the flexor reflex on anaesthetized cats; format: in vivo; details: chloralose-anaesthetized cats
Description: Method 3: Investigation of the flexor reflex on anaesthetized cats
Chloralose-anaesthetized cats of both sexes weighing 2.2-5.4 kg each were used in these experiments. The flexor reflex of the animals was studied by using the quantitative electromyographic method of Farkas et al [Pharmacol. Res. Comm. 20, Suppl. 1, 141 (1988)].
The results summarized in Table 1 are the values calculated from the average results of 4 to 8 experiments. The duration of effect was characterized by the time passing from the administration of this dose until the return to 75% of the control value (T75%).
The pharmacological activities of the compounds showing the most prominent effects together with the activity of tolperisone used as reference drug are shown in Table 1.

[3] = test system: GYKI-20039-induced tremor; test: Test on the GYKI-20039-induced tremor; format: in vivo, male CFLP mice; details: Mus musculus, iv; mice, pretreatment time 0 min; dose causing 50% inhibition of tremor induced by 10 mg/kg i.p. GYKI-20039
Description: Method 1: Test on the GYKI-20039-induced tremor
Groups consisting of 10 to 20 male CFLP mice each weighing 19 to 21 g were intraperitoneally (i.p.) treated with 10 mg/kg of GYKI-20039 (test substance). Similarly to the structurally related compound of code number LON-954, GYKI-20039 induces a tremor on mice which is considered as the experimental model of the Parkinson's disease [Coward et al., Psychopharmacology 52, 165 (1977); Andrasi et al. IX Internat. Congress of Neuropathology, 1-98, 209, Vienna 1982]. The tremor induced by GYKI-20039 reaches a maximum strength 4 to 8 minutes following administration of the test substance, then it continuously diminishes and is finished within about 1 hour. According to our experiences obtained on ten known central muscle relaxants, this tremor can be inhibited by central muscle relaxants in a dose-dependent manner and is useful for the assay (evaluation) of the central muscle relaxant effects. After administration of the test substance, the mice were suspended on an isometric dynamometer in a light plastic box and the strength of the tremor was measured and quantified by electronic integration. The tremor strength of the mice was averaged in the 4th-8th minutes after treatment with the test substance.
The animals were pretreated with various doses of the muscle relaxants to be tested before the treatment with the test substance. […]

[4] = 10 mg/kg i.v., time until return to 75% of the control value

Question: How did the ED50 [1] turn out when `Cc1ccc(C(=O)C(C)CN2CCCCC2)cc1` (stereo not drawn) [Tolperisone, tolperisone, reference compound] was run?
Answer: 63 mg/kg

Question: What about the “Duration of effect T75%” value [2, 4] of the same molecule?
Answer: 50 min

Question: What about the ED50 [3] of the same molecule?
Answer: 10.2 mg/kg

Question: For `C[Si](C)(CN1CCCCC1)c1ccc(F)cc1.Cl` [Compound 5, N-([dimethyl-(4-fluorophenyl)silyl]methyl)piperidine hydrochloride], which ED50 [1] is on record?
Answer: 17.8 mg/kg

Question: What about the “Duration of effect T75%” value [2, 4] of the same molecule?
Answer: > 180 min

Question: For `C[Si](C)(CN1CCCCC1)c1ccccc1.O=C(O)/C=C/C(=O)O` [Compound 1, N-[(dimethyl-phenylsilyl)methyl]piperidine fumarate], which ED50 [1] is on record?
Answer: 30.7 mg/kg

Question: What does the source list for `C[Si](C)(CN1CCCC1)c1ccccc1.Cl` [Compound 3, N-[(dimethyl-phenylsilyl)methyl]pyrrolidine hydrochloride]?
Answer: ED50 [1]: 37.7 mg/kg; Duration of effect T75% ([2]; i.v., the effect of 5 mg/kg was investigated): 50** min

Question: How did the ED50 [1] turn out when `C[Si](C)(CN1CCCC1)c1ccc(F)cc1.Cl` [Compound 6, N-([dimethyl-(4-fluorophenyl)silyl]methyl)pyrrolidine hydrochloride] was run?
Answer: 26.9 mg/kg

Question: What about the “Duration of effect T75%” value [2, 4] of the same molecule?
Answer: > 180 min

Question: What does the source list for `C[Si](C)(CN1CCCCC1)c1ccc(F)cc1.O=C(O)/C=C/C(=O)O` [Compound 4, N-([dimethyl-(4-fluorophenyl)silyl]methyl)piperidine fumarate]?
Answer: ED50 [1]: 19.1 mg/kg; Duration of effect T75% [2, 4]: 180 min
